Holding throughout (assay type): functional
What all share (settings): route subcutaneous

The subject of assay [1] is Mus musculus. Briefly: Antihyperglycemic activity in C57BL/KsJ db/db mouse at 25 mg/kg, sc administered twice a day for 4 days and once on day 5 after 60 mins of load injection by insulin suppression test relative to control.
Assay [2] deals with Mus musculus. Briefly: Antihyperglycemic activity in C57BL/KsJ db/db mouse assessed as reduction in water consumption at 25 mg/kg, sc administered twice a day for 4 days and once on day 5 relative to control. Also on record: scale not given: the % may be the effect or the level left.
Assay [3] deals with Mus musculus. Briefly: Antihyperglycemic activity in C57BL/KsJ db/db mouse assessed as reduction in food intake at 25 mg/kg, sc administered twice a day for 4 days and once on day 5 relative to control. Also on record: scale not given: the % may be the effect or the level left.
Assay [4] has as its system Mus musculus. Put plainly: Antihyperglycemic activity in C57BL/KsJ db/db mouse at 25 mg/kg, sc administered twice a day for 4 days once on day 5 immediately after load injection by insulin suppression test relative to control.
Assay [5] concerns Mus musculus. Put plainly: Antihyperglycemic activity in C57BL/KsJ db/db mouse at 13 mg/kg, sc administered twice a day for 4 days once on day 5 by insulin suppression test relative to control.
The test system of assay [6] is Mus musculus. Briefly: Antihyperglycemic activity in C57BL/KsJ db/db mouse at 130 mg/kg, sc administered twice a day for 4 days once on day 5 by insulin suppression test relative to control.
For assay [7], the system named is Mus musculus. Briefly: Antihyperglycemic activity in C57BL/KsJ db/db mouse at 5 mg/kg, sc administered twice a day for 4 days once on day 5 after 60 mins of load injection by insulin suppression test relative to control.
Assay [8] concerns Mus musculus. Briefly: Antihyperglycemic activity in C57BL/KsJ db/db mouse at 5 mg/kg, sc administered twice a day for 4 days once on day 5 immediately after load injection by insulin suppression test relative to control.

Regarding `CC(C)=CCNC(=N)NCCCCN`, the Activity in assay [1] is given as -11%; in assay [2], -53%; in assay [3], -37%; in assay [4] it was -13%.

Regarding `N=C(NCCCCN)NCCCc1ccccc1`, the Activity is -8% in assay [1], -44% in assay [2], -33% in assay [3] and 12% in assay [4].

Consider `CC(C)CCNC(=N)NCCCCCCN`, for which the Activity in assay [1] is -24%; in assay [2], -24%; in assay [3], -14%; in assay [4], -17%.

Take `N=C(NCCCCCCBr)NCC1CC1`: the Activity in assay [1] is listed as -20%; in assay [2] it was -30%; in assay [3] it was -22%; in assay [4], -12%.

For `CC(C)=CCNC(=N)NCCCCCCN`, the Activity is -13% in assay [1], -53% in assay [2], -19% in assay [3] and -31% in assay [4].

In the case of `N=C(NCC1CCC(CN)CC1)NCC1CC1` (configuration not stated), the Activity in assay [1] is on record as -43%; in assay [2], -59%; in assay [3], -40%; in assay [4] it was -29%.

For the compound `CC(C)=CCNC(=N)N[C@H]1CC[C@H](N)CC1`, the Activity in assay [1] was -22%; in assay [2], -44%; in assay [3] it was -27%; in assay [4], -14%.

Regarding `CC(C)=CCNC(=N)NCCCCCN`, the Activity in assay [1] is listed as -13%; in assay [2] it was -57%; in assay [3], -41%; in assay [4], -15%.

Take `CC(C)=CCNC(=N)NCC1CCC(CN)CC1` (configuration not stated): the Activity was -29% in assay [1], -29% in assay [2], -21% in assay [3] and -8% in assay [4].

As for `N=C(NCCCCCCN)NCC1CC1`, the Activity in assay [1] is -18%; in assay [2], -45%; in assay [3] it was -19%; in assay [4] it was -42%.

For `CN1CCN(/C(=N\c2ccc(F)cc2)NCCCCCCN)CC1`, the Activity is on record as -12% in assay [1], -35% in assay [2], -14% in assay [3] and -21% in assay [4].

For the compound `NCCCCCCN/C(=N/c1ccc(F)cc1)N1CCCCC1`, the Activity was -8% in assay [1], -41% in assay [2], -22% in assay [3] and -15% in assay [4].

For `CN(C)C(=N)NC(=N)N` [METFORMIN], the Activity in assay [5] is -11%; in assay [6], -22%.

With `CN(CCOc1ccc(CC2SC(=O)NC2=O)cc1)c1ccccn1` (configuration not stated) [ROSIGLITAZONE], the Activity in assay [7] is given as -39%; in assay [8], -29%.

The values above are taken from ChEMBL document CHEMBL1150352, “Novel substituted aminoalkylguanidines as potential antihyperglycemic and food intake-reducing agents” (2008).
